In patent US20040034037A1, “Heteroaryl compounds useful as inhibitors of GSK-3” (priority 2002, published 2004):

molecular target: T1, GSK-3β (AA 1-420) (Homo sapiens, UniProt P49841); experiment: Ki determination for the inhibition of GSK-3 (standard coupled enzyme system); assay type: biochemical; details: 20 μM ATP, 300 μM peptide, 30° C.
T1 construct: GSK-3β (AA 1-420)
Protocol: Reactions were carried out in a solution containing 100 mM HEPES (pH 7.5), 10 mM MgCl2, 25 mM NaCl, 300 μM NADH, 1 mM DTT and 1.5% DMSO. Final substrate concentrations in the assay were 20 μM ATP (Sigma Chemicals, St Louis, Mo.) and 300 μM peptide (HSSPHQS(PO3H2)EDEEE, American Peptide, Sunnyvale, Calif.). Reactions were carried out at 30° C. and 20 nM GSK-30. Final concentrations of the components of the coupled enzyme system were 2.5 mM phosphoenolpyruvate, 300 μM NADH, 30 μg/ml pyruvate kinase and 10 μg/ml lactate dehydrogenase.
An assay stock buffer solution was prepared containing all of the reagents listed above with the exception of ATP and the test Compound of interest. The assay stock buffer solution (175 μl) was incubated in a 96 well plate with 5 μl of the test compound of interest at final concentrations spanning 0.002 μM to 30 μM at 30° C. for 10 minutes. […] The reaction was initiated by the addition of 20 μl of ATP (final concentration 20 μM). Rates of reaction were obtained using a Molecular Devices Spectramax plate reader (Sunnyvale, Calif.) over 10 minutes at 30° C. The Ki values were determined from the rate data as a function of inhibitor concentration.

T1 sequence (P49841 whole entry, the tested form may be a part): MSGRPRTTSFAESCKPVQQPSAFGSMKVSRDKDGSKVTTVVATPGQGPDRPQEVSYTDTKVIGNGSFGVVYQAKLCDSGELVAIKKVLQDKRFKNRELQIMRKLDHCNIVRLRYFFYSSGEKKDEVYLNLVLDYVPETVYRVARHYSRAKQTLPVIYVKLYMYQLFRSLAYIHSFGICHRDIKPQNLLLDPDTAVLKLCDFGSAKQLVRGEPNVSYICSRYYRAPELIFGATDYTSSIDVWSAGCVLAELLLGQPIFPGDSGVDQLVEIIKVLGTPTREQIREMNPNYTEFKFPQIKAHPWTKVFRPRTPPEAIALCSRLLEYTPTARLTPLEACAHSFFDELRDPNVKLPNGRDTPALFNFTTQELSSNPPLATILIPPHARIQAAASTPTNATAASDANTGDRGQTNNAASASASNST

Ki, < 1 µM:
CC(C#N)n1c(-c2nonc2N)nc2ccccc21 (racemic) [Compound I-51]
CCCn1c(-c2nonc2N)nc2ccccc21 [Compound I-7, 4-(1-Propyl-1H-benzoimidazol-2-yl)-furazan-3-ylamine]
C=CCn1c(-c2nonc2N)nc2ccccc21 [Compound I-9, 4-(1-Allyl-1H-benzoimidazol-2-yl)-furazan-3-ylamine]
CC(C)n1c(-c2nonc2N)nc2ccccc21 [Compound I-11, 4-(1-Isopropyl-1H-benzoimidazol-2-yl)-furazan-3-ylamine]
N#CCn1c(-c2nonc2N)nc2ccccc21 [Compound I-13, [2-(4-Amino-furazan-3-yl)-benzoimidazol-1-yl]-acetonitrile]
Nc1nonc1-c1nc2ccccc2n1CC(=O)Nc1ccc(F)c(F)c1 [Compound I-19, 2-[2-(4-Amino-furazan-3-yl)-benzoimidazol-1-yl]-N-(3,4-difluoro-phenyl)-acetamide]
Nc1nonc1-c1nc2ccccc2n1CC1CC1 [Compound I-32, 1-Cyclopropylmethyl-2-[(4-amino)-1,2,5-oxadiazol-3-yl]benzimidazole]
Nc1nonc1-c1nc2ccccc2n1CC(F)(F)F [Compound I-37, 1-(2,2,2-Trifluoro)ethyl-2-[(4-amino)-1,2,5-oxadiazol-3-yl]benzimidazole]
COc1ccc2c(c1)nc(-c1nonc1N)n2CC#N [Compound I-47, 1-Cyanomethyl-2-[(4-amino)-1,2,5-oxadiazol-3-yl]-5/6-methoxy benzimidazole]
Nc1nonc1-c1nc2ccccc2n1-c1ccccc1 [Compound I-50, 1-Phenyl-2-[(4-amino)-1,2,5-oxadiazol-3-yl]benzimidazole]
CC(C)CCn1c(-c2nonc2N)nc2ccccc21 [Compound I-54, 1-(3-Methyl)butyl-2-[(4-amino)-1,2,5-oxadiazol-3-yl]benzimidazole]
CCn1c(-c2nonc2N)nc2ccccc21 [Compound I-55, 4-(1-Ethyl-1H-benzoimidazol-2-yl)-furazan-3-ylamine]
N#CCn1c(-c2nonc2N)nc2c([N+](=O)[O-])cccc21 [Compound I-56, 1-Cyanomethyl-2-[(4-amino)-1,2,5-oxadiazol-3-yl]-4-nitro benzimidazole]
N#CCOc1cccc2c1nc(-c1nonc1N)n2CC#N [Compound I-58, 1-Cyanomethyl-2-[(4-amino)-1,2,5-oxadiazol-3-yl]-4/7-cyanomethoxy benzimidazole]
Nc1cccnc1-c1nc2ccccc2[nH]1 [Compound I-87]
CNc1nccnc1-c1nc2ccccc2n1CC#N [Compound I-90, 3-(1-Cyanomethylbenzimidazol-2-yl)-pyrazin-2-yl methylamine]
CC(C)Cn1c(-c2nc(Cl)cnc2N)nc2ccccc21 [Compound I-96]
CC(C(N)=O)n1c(-c2nonc2N)nc2ccccc21 (stereo not shown) [Compound I-109]
CC(C)Cn1c(-c2nonc2N)nc2cc(O)ccc21 [Compound I-129]
